Counter-ions that a name gives are not always drawn.
Tests used:
rat IKK2 = molecular target: T1, rat IKK2 (Rattus norvegicus, UniProt Q9QY78); assay: Evaluation of rat IKK2 enzyme inhibition; type: biochemical; settings: 0.5 μM ATP, probit analysis; read-out: IC50, rat IKK2 enzyme activity-inhibitory effect
T1 construct: ORF of rat IKK2 (GenBank AF115282) was cloned from a rat pancreas cDNA library; FLAG; made in house; host or cells: Sf9 insect cells
T1 sequence (Q9QY78 1-757): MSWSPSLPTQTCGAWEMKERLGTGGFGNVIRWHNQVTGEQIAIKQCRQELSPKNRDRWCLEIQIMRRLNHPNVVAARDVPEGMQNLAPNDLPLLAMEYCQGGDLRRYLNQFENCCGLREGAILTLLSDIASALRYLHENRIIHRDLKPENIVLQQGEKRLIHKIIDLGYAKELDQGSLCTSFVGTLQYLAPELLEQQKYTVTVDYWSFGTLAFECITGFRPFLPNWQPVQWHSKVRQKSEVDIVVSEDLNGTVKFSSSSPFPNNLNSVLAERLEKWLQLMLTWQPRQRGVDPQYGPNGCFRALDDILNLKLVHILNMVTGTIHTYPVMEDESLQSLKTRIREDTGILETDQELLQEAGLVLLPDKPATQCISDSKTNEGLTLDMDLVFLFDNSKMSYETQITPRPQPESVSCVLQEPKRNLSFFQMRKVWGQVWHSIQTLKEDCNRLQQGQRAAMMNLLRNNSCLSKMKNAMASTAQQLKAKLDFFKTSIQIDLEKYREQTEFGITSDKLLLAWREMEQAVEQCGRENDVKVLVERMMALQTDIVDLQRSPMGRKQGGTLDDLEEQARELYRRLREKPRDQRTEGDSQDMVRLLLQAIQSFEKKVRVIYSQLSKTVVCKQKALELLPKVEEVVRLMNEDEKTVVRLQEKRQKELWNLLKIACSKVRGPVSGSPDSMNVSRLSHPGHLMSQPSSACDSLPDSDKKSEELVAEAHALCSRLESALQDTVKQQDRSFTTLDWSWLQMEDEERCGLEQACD
Experimental: (1) Evaluation of Rat IKK2 Enzyme Inhibition:
ORF of rat IKK2 (GenBank AF115282) was cloned from a rat pancreas cDNA library, and with a FLAG-tag attached thereto, it was expressed in an Sf9 cell line. The cells were dissolved in a cytolytic solution (50 mM Tris-HCl pH 7.5, 0.15M NaCl, 1% NP-40, 10% glycerol, 1 mM EDTA, 1 mM EGTA pH 7.5, 1 mM Na3VO4, 5 mM p-nitrophenylphosphate, 10 mM O-glycerophosphate, 1 mM DTT, 1 mM PMSF, 10 μg/ml leupeptin, 10 μg/ml aprotinin (by Sigma)) to prepare a large amount of an cell extract, which was then purified on an anti-FLAG M2 antibody (by Sigma). This experimental operation was carried out in accordance with gene manipulation experiment manuals such as known methods (Sambrook, J. et al, Molecular Cloning-A Laboratory Manual, Cold Spring Harbor laboratory, NY, 1989) or the instructions attached to the reagents. The purified rat IKK2 was stored in an enzyme preservative (20 mM Tris-HCl pH 7.5, 10% glycerol, 12.5 mM β-glycerophosphate, 0.5 mM EDTA, 0.5 mM EGTA, 0.05% Brij35, 1 mM DTT, 1 mM PMSF (by Sigma)) at −80° C.
The purified rat IKK2, 1× enzymatic reaction buffer (20 mM Tris-HCl pH 7.5, 12.5 mM O-glycerophosphate, 20 mM MgCl2, 0.1 mM DTT), 0.01% BSA (by Sigma), 0.5 μM ATP, 0.2 μM biotinated substrate peptide (18th to 49th amino acid residues of rat I-kappa B alpha (GenBank Q63746)) and a test compound dissolved in DMSO were added to a 384-well plate (catalogue No. 3677, by Corning) to be 10 μl in total therein, and left at room temperature for 90 minutes. Next, […] of a reaction stopper (100 mM Hepse pH 8, 0.01% BSA, 0.8 M KF, 50 mM EDTA pH 8, 1% Triton X-100, europium cryptate-labeled anti-phosphorylation I-kappa B alpha-antibody (by Santa Cru), streptoavidin-labeled XL665 (by Nihon Schering)) was added thereto, kept warmed for 30 minutes, and then assayed with DISCOVERY (by Perkin-Elmer). The rat IKK2 enzyme activity-inhibitory effect of the tested compound was obtained according to the following formula. Every dose was tested independently three times. Inhibition (%) by Test Compound=((mean value with rat IKK2 but not with test compound)−(mean value with both test compound and rat IKK2))/((mean value with rat IKK2 but not with test compound)−(mean value not with rat IKK2))×100.

TNF-α production = assay: Mouse LPS-induced TNF-α production model; type: in vivo, Balb/c female mice; settings: oral administration of 30 mg/kg, 60 minutes before LPS, blood 90 minutes after LPS; for inhibition in vivo at 30 mg/kg: Mus musculus, po, 1.5 h, read-out: inhibition of plasma TNF-α
Experimental: (2) Mouse LPS-Induced TNF-α Production Model:
6 weeks old Balb/c female mice were placed into two groups, a control group and a test compound administration group. A solution containing 10 μg/mouse of LPS in 0.9% physiological salt was administered by intraperitoneal injection into the control mice. 60 minutes before the LPS administration, a compound of the invention was orally administered to the mice of the test compound administration group. Under anesthesia with diethyl ether, blood was collected from the posterior venous cavity of the mice of both the test compound administration group and the control group at 90 minutes after the LPS administration, and treated with heparin, and the plasma was separated from it through centrifugation at 10000 rpm at 4° C. for 10 minutes, and then diluted two-fold with PBS (pH 7.4).
The TNF-α concentration in the sample was determined with an ELISA kit (by Pharmingen, San Diego, Calif.). The inhibition by the mice of the test compound administration group relative to the mean inhibition by those of the control group was calculated as a mean value thereof.
The inhibition in oral administration of 30 mg/kg of compound (I) is shown below.

carrageenan paw edema = assay: Rat carrageenan paw edema model; type: in vivo, Sprague-Dawley male rats; settings: for edema inhibitory activity: 30 mg/kg oral administration, 3 hours after carrageenan
Experimental: (3) Rat Carrageenan Paw Edema Model:
After their body weight was measured, Sprague-Dawley male rats (6-10 weeks age, male, by Nippon SLC) were divided into groups of 5 rats each in such a manner that the mean body weight of each group could be on the same level. Next, a test compound was orally administered to the rats (but 10 mL/kg of solvent alone was administered to those of the control group). 30 minutes after the test compound administration thereto, 100 μL of a 1% carrageenan (by Sigma Aldrich Japan) solution was subcutaneously injected to the sub-plantar of the right foot of each rat to induce inflammation. 3 hours after the inflammation induction, the rats were killed by deep anesthetization with ether, and their tissue below the right and left ankles was cut and collected and its weight was measured.
The test result was obtained as follows: In every rat, the weight of the left foot with no carrageenan injection thereto was subtracted from the weight of the right foot with carrageenan injection thereto, 3 hours after the carrageenan injection, thereby calculating the weight difference (g) therebetween. The edema inhibition in the test compound-administered rats was calculated relative to the mean value of the rats of the control group. For multi-group comparison between the control group and the test compound administration group, employed was a Dunnett multiple comparison test, in which the P value less than 0.05 was considered as statistical significance. All the above statistical analyses were carried out, using SAS.

Structure (SMILES) | IC50 (rat IKK2) | also measured
CC1CC1COc1cccc(O)c1-c1cc(C2CCCNC2)nc(N)n1 (centres unmarked) [Example 65, 2-(2-amino-6-piperidin-3-ylpyrimidin-4-yl)-3-[(2-methylcyclopropyl)methoxy]phenol dihydrochloride] | ≤ 500 nM | inhibition in vivo at 30 mg/kg (TNF-α production): 75%
Nc1nc(-c2c(O)cccc2OCCC2CC2)cc(C2CCCNC2)n1 (centres unmarked) [Example 104] | ≤ 500 nM | inhibition in vivo at 30 mg/kg (TNF-α production): 86%
CC(C)COCCOc1cccc(O)c1-c1cc(C2CCCNC2)nc(N)n1 (centres unmarked) [Example 101] | ≤ 500 nM | –
Nc1nc(-c2c(O)cccc2OCc2ccccc2)cc(C2CCCNC2)n1 (centres unmarked) [Example 47] | ≤ 500 nM | –
Nc1nc(-c2c(O)cccc2OCC(F)(F)C(F)F)cc(C2CCCNC2)n1 (centres unmarked) [Example 89] | ≤ 500 nM | inhibition in vivo at 30 mg/kg (TNF-α production): 87%
Nc1nc(-c2c(O)cccc2OCCCC(F)(F)F)cc(C2CCCNC2)n1 (centres unmarked) [Example 106] | ≤ 500 nM | inhibition in vivo at 30 mg/kg (TNF-α production): 82%
Cc1cc(O)c(-c2cc(C3CCCNC3)nc(N)n2)c(OCC2CC2)c1 (centres unmarked) [Example 40] | ≤ 500 nM | –
Cc1cc(O)c(-c2cc(C3CCCNC3)nc(N)n2)cc1Cl (centres unmarked) [Example 19] | ≤ 500 nM | –
Nc1nc(-c2c(O)cccc2OCCC2CCNCC2)cc(C2CCCNC2)n1 (centres unmarked) [Example 48] | ≤ 500 nM | –
CCc1ccc(O)c(-c2cc(C3CCCNC3)nc(N)n2)c1 (single isomer, unassigned; (+)) [Example 79, (+)-2-(2-amino-6-piperidin-3-ylpyrimidin-4-yl)-4-ethylphenol dihydrochloride] | – | inhibition in vivo at 30 mg/kg (TNF-α production): 64%
Nc1nc(-c2cc(Cl)ccc2O)cc(C2CCCNC2)n1 (centres unmarked) [Example 14] | ≤ 500 nM | –
Nc1nc(-c2c(O)cccc2OCC2CC2)cc(C2CCCNC2)n1 (centres unmarked) [Example 141] | – | inhibition in vivo at 30 mg/kg (TNF-α production): 86%
CCc1ccc(O)c(-c2cc(C3CCCNC3)nc(N)n2)c1 (single isomer, unassigned; (-)) [Example 78, (−)-2-(2-amino-6-piperidin-3-ylpyrimidin-4-yl)-4-ethylphenol dihydrochloride] | ≤ 500 nM | –
Cc1ccc(O)c(-c2cc(C3CCC(C)NC3)nc(N)n2)c1 (centres unmarked) [Example 137] | ≤ 500 nM | –
CC1CCC(c2cc(-c3c(O)cccc3OCC3CC3)nc(N)n2)CN1 (centres unmarked) [Example 140] | 2.9 nM | inhibition in vivo at 30 mg/kg (TNF-α production): 86%
COCCOc1cccc(O)c1-c1cc(C2CCCNC2)nc(N)n1 (centres unmarked) [Example 46] | ≤ 500 nM | –
CN(Cc1cnc2nc(N)nc(N)c2n1)c1ccc(C(=O)N[C@@H](CCC(=O)O)C(=O)O)cc1 [Methotrexate, reference compound] | – | effect on carrageenan paw edema (carrageenan paw edema; dose not given): did not exhibit an effect
Nc1nc(-c2ccccc2O)cc(C2CCCNC2)n1 (centres unmarked) [Example 1, 2-(2-amino-6-piperidin-3-ylpyrimidin-4-yl)phenol dihydrochloride] | ≤ 500 nM | –
CC1(COc2cccc(O)c2-c2cc(C3CCCNC3)nc(N)n2)CC1 (centres unmarked) [Example 99] | ≤ 500 nM | –
CC(C)OCCOc1cccc(O)c1-c1cc(C2CCCNC2)nc(N)n1 (centres unmarked) [Example 100] | ≤ 500 nM | –
Nc1nc(-c2c(O)cccc2OCC2CC2)cc(C2CCCNC2)n1 (centres unmarked) [Example 142] | – | inhibition of plasma TNF-α (TNF-α production; 30 mg/kg): 90%
Cc1ccc(-c2cc(C3CCCNC3)nc(N)n2)c(O)c1 (centres unmarked) [Example 21] | ≤ 500 nM | edema inhibitory activity (carrageenan paw edema): 30%

Continued, in another order:

IC50 (rat IKK2) | Structure (SMILES) | also measured
≤ 500 nM | Nc1nc(-c2c(O)cccc2OCC(=O)c2ccccc2)cc(C2CCNCC2)n1 [Example 147] | –
≤ 500 nM | Nc1nc(-c2c(O)cccc2O)cc(C2CCCNC2)n1 (centres unmarked) [Example 10, 2-(2-amino-6-piperidin-3-ylpyrimidin-4-yl)benzene-1,3-diol dihydrochloride] | –
≤ 500 nM | CCc1ccc(O)c(-c2cc(C3CCCNC3)nc(N)n2)c1 (centres unmarked) [Example 23] | edema inhibitory activity (carrageenan paw edema): 50%
≤ 500 nM | CC1CCC(Oc2cccc(O)c2-c2cc(C3CCCNC3)nc(N)n2)C1 (centres unmarked) [Example 126] | –
≤ 500 nM | Cc1ccc(O)c(-c2cc(C3CCCNC3)nc(N)n2)c1 (centres unmarked) [Example 22] | inhibition in vivo at 30 mg/kg (TNF-α production): 73%
≤ 500 nM | COc1cccc(O)c1-c1cc(C2CCCNC2)nc(N)n1 (centres unmarked) [Example 44] | –
≤ 500 nM | Nc1nc(-c2c(O)cccc2OCC2CC2)cc(C2CCNCC2)n1 [Example 145] | –
≤ 500 nM | CCOc1cccc(O)c1-c1cc(C2CCCNC2)nc(N)n1 (centres unmarked) [Example 5, 2-(2-amino-6-piperidin-3-ylpyrimidin-4-yl)-3-ethoxyphenol dihydrochloride] | –
≤ 500 nM | Nc1nc(-c2c(O)cccc2OCc2ccc(Br)cc2)cc(C2CCCNC2)n1 (centres unmarked) [Example 108] | –
≤ 500 nM | CSc1ccc(O)c(-c2cc(C3CCCNC3)nc(N)n2)c1 (centres unmarked) [Example 28] | –
≤ 500 nM | COc1ccc(O)c(-c2cc(C3CCCNC3)nc(N)n2)c1 (centres unmarked) [Example 26] | –
≤ 500 nM | Nc1nc(-c2ccc(F)cc2O)cc(C2CCCNC2)n1 (centres unmarked) [Example 13] | –
≤ 500 nM | Cc1ccc(O)c(-c2cc(C3CNCC(C)C3)nc(N)n2)c1 (centres unmarked) [Example 136] | –
≤ 500 nM | CC(C)COc1cccc(O)c1-c1cc(C2CCNCC2)nc(N)n1 [Example 146] | –
≤ 500 nM | Nc1nc(-c2cc(F)ccc2O)cc(C2CCCNC2)n1 (centres unmarked) [Example 12] | –
≤ 500 nM | CC(COc1cccc(O)c1-c1cc(C2CCCNC2)nc(N)n1)Oc1ccccc1 (centres unmarked) [Example 103] | inhibition in vivo at 30 mg/kg (TNF-α production): 70%

— patent US20070265289A1, “2-Aminopyrimidine Derivative” (priority 2004, published 2007)
